*1 amine or outer side, *2 acyl side, *3 side chain or, on linkers, in order; H or OH if unused. Where a SMILES comes first, the peptide text is derived from it. CO = O=C([*:1])[*:2]
Biological target: T1, alkaline proteinase K-16 from Bacillus sp. KSM-K16 (Shouchella clausii, UniProt Q99405)
T1 construct: made in house; host or cells: Bacillus sp; KSM-K16 (own producer strain, culture)
T1 sequence (Q99405 112-380): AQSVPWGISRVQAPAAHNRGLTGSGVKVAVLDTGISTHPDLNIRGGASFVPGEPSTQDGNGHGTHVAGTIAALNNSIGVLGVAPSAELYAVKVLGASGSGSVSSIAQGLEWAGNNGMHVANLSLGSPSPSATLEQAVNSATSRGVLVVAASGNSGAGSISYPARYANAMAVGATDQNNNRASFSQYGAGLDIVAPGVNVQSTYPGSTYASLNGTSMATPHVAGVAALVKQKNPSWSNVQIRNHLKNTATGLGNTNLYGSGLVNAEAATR
Assay type: biochemical
Settings: for Residual activity (%): pH 7

| Compound | Effect of inhibitor on activity (in words) | Residual activity (%) |
| --- | --- | --- |
| O=C(O)CN(CCN(CC(=O)O)CC(=O)O)CC(=O)O [EDTA, Ethylenediaminetetraacetic acid] | not inhibited | – |
| O=S(=O)(F)Cc1ccccc1 [PMSF, Phenylmethanesulfonyl fluoride] | inhibited | 1.5 |
| chymostatin | inhibited | 34 |
| CC(C)[C@H](NC(=O)[C@H](CCCNC(=N)N)NC(=O)N[C@@H](Cc1ccccc1)C(=O)O)C(=O)N[C@H](C=O)CCCNC(=N)N [Antipain] ({Phe-CO}-Arg-Val-Arg-aldehyde) | not inhibited | – |

Source: patent publication US5296367A (priority 1991, dated 1994)
